Laboratory results reported in patent publication US20260070945A1, “MACROCYCLIC IMMUNOMODULATORS” (Bristol-Myers Squibb Company, priority 2022, published 2026).
Read-outs that look alike come from different tables or passages of the source. *1 amine or outer side, *2 acyl side, *3 side chain or, on linkers, in order; H or OH if unused. Where a SMILES comes first, the peptide text is derived from it. Bridges are numbered along the chain shown (N, C = ends). [ ]: non-standard residue; d: D form. The star is where a group is joined. ξ: configuration not given here. Phe(4-COOH) = N[C@@H](Cc1ccc(C(=O)O)cc1)C(=O)O; Bip = N[C@@H](Cc1ccc(-c2ccccc2)cc1)C(=O)O; Phe(3-Me) = Cc1cccc(C[C@H](N)C(=O)O)c1; NMeAEEA = CN(CCOCCOCC(=O)[*:2])[*:1]; 4Pal = N[C@@H](Cc1ccncc1)C(=O)O; Cha = N[C@@H](CC1CCCCC1)C(=O)O; Cit = NC(=O)NCCC[C@H](N)C(=O)O; Thr(3ξ) = CC(O)[C@H](N)C(=O)O; Carboxymethyl = O=C(O)C*; NMeA = CN[C@@H](C)C(=O)O; Orn = NCCC[C@H](N)C(=O)O; Aun = NCCCCCCCCCCC(=O)O; Dab = NCC[C@H](N)C(=O)O; AEEA = NCCOCCOCC(=O)O

Target: T1, PD-1/PD-L1 interaction (PE-labeled human PD-L1-Ig binding to Jurkat cell line over-expressing human PD-1) (Homo sapiens, UniProt Q15116)
T1 construct: expressed in transfected cells; host or cells: Jurkat
T1 sequence (Q15116 25-288): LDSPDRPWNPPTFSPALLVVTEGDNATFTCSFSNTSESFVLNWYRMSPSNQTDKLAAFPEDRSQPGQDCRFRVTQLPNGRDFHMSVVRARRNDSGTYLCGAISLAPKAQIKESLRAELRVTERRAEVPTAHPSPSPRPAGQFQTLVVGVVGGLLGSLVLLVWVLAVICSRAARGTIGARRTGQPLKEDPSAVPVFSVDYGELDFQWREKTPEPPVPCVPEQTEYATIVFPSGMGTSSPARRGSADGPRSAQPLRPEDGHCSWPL
Assay: Jurkat-PD-1 Cell Binding High-Content Screening Assay (CBA)
In short: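 Cells 8×10^3/well, DMEM + 10% FCS; cpd 2 h, 37 °C; PE–PD-L1-Ig 20 nM final, 1 h; PFA fix + Hoechst 33342, 3× dPBS wash; high-content imager.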

[1] = Jurkat-hPD-1 cells, PE-labeled PD-L1-Ig 20 nM final; read-out: Jurkat HPD1 PDL1 IC50

Row | Compound | IC50 [1] [nM] | IC50 (PE-labeled PD-L1-Ig 20 nM final, Jurkat-hPD-1 cells; read-out: Jurkat HPD1 PDL1 IC50) [nM]
1 | Cc1cccc(C[C@@H]2NC(=O)[C@H](CC(=O)O)NC(=O)[C@H](Cc3ccc(C(=O)O)cc3)NC(=O)[C@H](Cc3ccc(OCC(=O)O)cc3)NC(=O)CSC[C@@H](C(=O)NCCOCCOCC(=O)NCCCCCCCCCCC(=O)O)NC(=O)[C@H](CCCNC(N)=O)NC(=O)[C@H](C(C)C)NC(=O)[C@H](CC3CCCCC3)NC(=O)[C@H](CCN)NC(=O)[C@@H](CC(C)C)NC(=O)[C@H](C)N(C)C(=O)[C@H](C(C)C)NC(=O)[C@H](Cc3ccc(-c4ccccc4)cc3)NC(=O)[C@H](CC(C)C)NC2=O)c1 [Example 2286] ({CH2CO}-Y(Carboxymethyl)[Phe(4-COOH)]D[Phe(3-Me)]L[Bip]V[NMeA][dL][Dab][Cha]V[Cit]C[AEEA][Aun]-OH; thioether N-14) | 27.4 | 
2 | CC(C)C[C@@H]1NC(=O)[C@H](Cc2c[nH]c3ccccc23)NC(=O)[C@H](CC(=O)O)NC(=O)[C@H](Cc2ccncc2)NC(=O)[C@H](Cc2ccc(OCC(=O)O)cc2)NC(=O)CSC[C@@H](C(=O)N[C@@H](CCCNC(N)=O)C(=O)NCCOCCOCC(=O)NCCCCCCCCCCC(=O)O)NC(=O)[C@H](CCCNC(N)=O)NC(=O)[C@H](C(C)C)NC(=O)[C@H](CC2CCCCC2)NC(=O)[C@H](CCN)NC(=O)[C@@H](CC(C)C)NC(=O)[C@H](C)N(C)C(=O)[C@H](C(C)C)NC(=O)[C@H](Cc2ccc(-c3ccccc3)cc2)NC1=O [Example 2167] ({CH2CO}-Y(Carboxymethyl)[4Pal]DWL[Bip]V[NMeA][dL][Dab][Cha]V[Cit]C[Cit][AEEA][Aun]-OH; thioether N-14) | 24.4 | 
3 | Cc1cccc(C[C@@H]2NC(=O)[C@H](CC(=O)O)NC(=O)[C@H](Cc3ccc(OCC(=O)O)cc3)NC(=O)[C@H](C(C)O)NC(=O)CSC[C@@H](C(=O)N(C)CCOCCOCC(=O)NCCCCCCCCCCC(=O)O)NC(=O)[C@H](CCCN)NC(=O)[C@H](C(C)C)NC(=O)[C@H](CC3CCCCC3)NC(=O)[C@H](CCN)NC(=O)[C@@H](CC(C)C)NC(=O)[C@H](C)N(C)C(=O)[C@H](C(C)C)NC(=O)[C@H](Cc3ccc(-c4ccccc4)cc3)NC(=O)[C@H](C(C)C)NC2=O)c1 (stereo partly drawn) [Example 2219] ({CH2CO}-[Thr(3ξ)]Y(Carboxymethyl)D[Phe(3-Me)]V[Bip]V[NMeA][dL][Dab][Cha]V[Orn]C[NMeAEEA][Aun]-OH; thioether N-14) | 6.2 | 

More lines, now with the values ahead:

Row | IC50 [1] [nM] | IC50 (PE-labeled PD-L1-Ig 20 nM final, Jurkat-hPD-1 cells; read-out: Jurkat HPD1 PDL1 IC50) [nM] | Compound
4 | 7.8 |  | Cc1cccc(C[C@@H]2NC(=O)[C@H](CC(=O)O)NC(=O)[C@H](Cc3ccc(OCC(=O)O)cc3)NC(=O)[C@H](CCCNC(=N)N)NC(=O)CSC[C@@H](C(=O)NCCOCCOCC(=O)NCCCCCCCCCCC(=O)O)NC(=O)[C@H](C(C)O)NC(=O)[C@H](C(C)C)NC(=O)[C@H](CC3CCCCC3)NC(=O)[C@H](CCN)NC(=O)[C@@H](CC(C)C)NC(=O)[C@H](C)N(C)C(=O)[C@H](CCCNC(N)=O)NC(=O)[C@H](Cc3ccc(-c4ccccc4)cc3)NC(=O)[C@H](C(C)C)NC2=O)c1 (stereo partly drawn) [Example 2318] ({CH2CO}-RY(Carboxymethyl)D[Phe(3-Me)]V[Bip][Cit][NMeA][dL][Dab][Cha]V[Thr(3ξ)]C[AEEA][Aun]-OH; thioether N-14)
5 |  | 2.8 | Cc1cccc(C[C@@H]2NC(=O)[C@H](CC(=O)O)NC(=O)[C@H](Cc3ccc(C(=O)O)cc3)NC(=O)[C@H](CCN)NC(=O)CSC[C@@H](C(=O)N[C@@H](CCN)C(=O)NCCOCCOCC(=O)NCCCCCCCCCCC(=O)O)NC(=O)[C@H](Cc3cnc[nH]3)NC(=O)[C@H](C(C)O)NC(=O)[C@H](CC3CCCCC3)NC(=O)[C@H](CCN)NC(=O)[C@@H](CC(C)C)NC(=O)[C@H](C)N(C)C(=O)[C@H](Cc3ccc(C(=O)O)cc3)NC(=O)[C@H](Cc3ccc(-c4ccccc4)cc3)NC(=O)[C@H](Cc3ccc(C(=O)O)cc3)NC2=O)c1 (stereo partly drawn) [Example 2550] ({CH2CO}-[Dab][Phe(4-COOH)]D[Phe(3-Me)][Phe(4-COOH)][Bip][Phe(4-COOH)][NMeA][dL][Dab][Cha][Thr(3ξ)]HC[Dab][AEEA][Aun]-OH; thioether N-14)
